{"source": "patent US9770026B2", "about": "“Substituted pyrimidine compound and uses thereof” (Shenyang Sinochem Agrochemicals R&D Co., Ltd., priority 2012, dated 2017)", "key": {"[1]": {"tested_on": "rice blast", "assay": "microbe, parasite or virus in culture", "type": "cell-based", "conditions": "Pyricularia oryzae; for inhibition at 25 ppm: read-out: inhibition rate against rice blast, 25 ppm, in vitro; for inhibition at 8.3 ppm: read-out: inhibition rate against rice blast, 8.3 ppm, in vitro"}, "[2]": {"tested_on": "cucumber gray mold", "assay": "fungicidal activity in vitro (inhibition rate) against cucumber gray mold", "type": "cell-based", "conditions": "25 ppm, in vitro; read-out: inhibition rate against cucumber gray mold"}, "[3]": {"tested_on": "Diamond back moth", "assay": "insecticidal activity against diamond back moth, airbrush spray", "type": "in vivo", "summary_of_the_method": "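Airbrush leaf-disc spray test: both faces of 2 cm cabbage discs received 0.5 ml of test solution at 0.7 kg/cm^2. Solutions were made in acetone:methanol (1:1) and brought to concentration with 0.1% Tween 80 in water. Ten second-instar larvae per disc, triplicates, were held at 25° C and 60˜70% R.H., with mortality recorded at 72 hrs.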"}, "[4]": {"tested_on": "armyworm", "assay": "bioactivity test against armyworm, airbrush spray", "type": "in vivo"}, "[5]": {"tested_on": "Green peach aphids (Myzus Persicae Sulzer)", "assay": "bioactivity test against green peach aphid, airbrush foliar spray", "type": "in vivo", "conditions": "contrastive test; for pest or weed control at 10 µg/mL / pest or weed control at 100 µg/mL / pest or weed control at 600 µg/mL: Myzus persicae, foliar, 48 h, read-out: Insecticidal activity against peach aphid (%); for pest or weed control at 10 µg/mL: 10 mg/L; for pest or weed control at 100 µg/mL: 100 mg/L", "summary_of_the_method": "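Aphids (15-30 per cabbage leaf disc) on moist filter paper were airbrush-sprayed at 10 psi, 0.5 mL, with compound from acetone:methanol (1:1) diluted in water with 0.1% tween 80. Held at 25±1 C, 60±5% RH; survivors counted after 48 hrs to give death rates.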"}, "[6]": {"tested_on": "carmine spider mite", "assay": "bioactivity test against carmine spider mite, airbrush spray", "type": "in vivo", "conditions": "contrastive test; for pest or weed control at 10 µg/mL: 10 mg/L; for pest or weed control at 100 µg/mL: 100 mg/L", "summary_of_the_method": "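Broadbean seedlings infested with adult mites were sprayed with compound (acetone/methanol stock diluted in 0.1% Tween 80 water) by airbrush at 0.7 kg/cm^2, 0.5 ml. Three replicates were run. Mortality was scored after 72 hrs.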"}, "[7]": {"tested_on": "wheat powdery mildew", "assay": "protectant activity in vivo against wheat powdery mildew", "conditions": "protectant activity"}, "[8]": {"tested_on": "cucumber downy mildew", "assay": "protectant activity in vivo against cucumber downy mildew", "conditions": "400 mg/L; protectant activity"}, "[9]": {"tested_on": "corn rust", "assay": "protectant activity in vivo against corn rust", "conditions": "Zea mays, 168 h, protectant activity; for pest or weed control at 6.25 µg/mL: read-out: control effect against corn rust (%), 6.25 mg/L; for pest or weed control at 25 µg/mL: read-out: control effect against corn rust (%), 25 mg/L; for pest or weed control at 100 µg/mL: read-out: control effect against corn rust (%), 100 mg/L; for pest or weed control at 400 µg/mL: read-out: control effect against corn rust (%), 400 mg/L"}, "[10]": {"conditions": "Tetranychus cinnabarinus, 72 h, read-out: Insecticidal activity against carmine spider mite (% )"}, "[11]": {"conditions": "72 h, 600 mg/L, read-out: Insecticidal activity against armyworm (%)"}}}
{"smiles": "Cc1ncnc(NCc2ccc(Oc3ncc(C(F)(F)F)cc3Cl)cc2)c1Cl", "note": "[CK32, reference compound]", "values": [{"measurement": "inhibition at 25 ppm", "setting": "[1]", "value": "< 50", "unit": "%"}, {"measurement": "inhibition at 25 ppm", "setting": "[2]", "value": 0, "unit": "%"}, {"measurement": "Insecticidal activity against diamond back moth (%)", "setting": "[3]; 600 mg/L", "value": 0, "unit": "%"}, {"measurement": "Insecticidal activity against armyworm (%)", "setting": "[4]; 600 mg/L", "value": 0, "unit": "%"}, {"measurement": "Insecticidal activity against peach aphid (%)", "setting": "[5]; 600 mg/L", "value": 0, "unit": "%"}, {"measurement": "Insecticidal activity against carmine spider mite (% )", "setting": "[6]; 600 mg/L", "value": 91, "unit": "%"}, {"measurement": "pest or weed control at 10 µg/mL", "setting": "[6]; [10]", "value": 0, "unit": "%"}, {"measurement": "pest or weed control at 100 µg/mL", "setting": "[6]; [10]", "value": 22, "unit": "%"}, {"measurement": "control effect against wheat powdery mildew (%)", "setting": "[7]; 400 mg/L", "value": 0, "unit": "%"}, {"measurement": "control effect against cucumber downy mildew (%)", "setting": "[8]", "value": 60, "unit": "%"}]}
{"smiles": "Cc1ncnc(NC(C)c2ccc(Oc3ccc(C(F)(F)F)cc3)cc2)c1Cl", "note": "(stereo not drawn) [CK46, reference compound]", "values": [{"measurement": "inhibition at 8.3 ppm", "setting": "[1]", "value": 0, "unit": "%"}, {"measurement": "inhibition at 25 ppm", "setting": "[1]", "value": "< 50", "unit": "%"}, {"measurement": "inhibition at 25 ppm", "setting": "[2]", "value": 0, "unit": "%"}, {"measurement": "pest or weed control at 10 µg/mL", "setting": "[3]; 72 h, 10 mg/L", "value": 0, "unit": "%"}, {"measurement": "pest or weed control at 100 µg/mL", "setting": "[3]; 72 h, 100 mg/L", "value": 10, "unit": "%"}, {"measurement": "pest or weed control at 600 µg/mL", "setting": "[3]; 72 h, 600 mg/L", "value": 100, "unit": "%"}, {"measurement": "pest or weed control at 10 µg/mL", "setting": "[4]; 72 h, 10 mg/L, read-out: Insecticidal activity against armyworm (%)", "value": 0, "unit": "%"}, {"measurement": "pest or weed control at 100 µg/mL", "setting": "[4]; 72 h, 100 mg/L, read-out: Insecticidal activity against armyworm (%)", "value": 0, "unit": "%"}, {"measurement": "pest or weed control at 600 µg/mL", "setting": "[4]; [11]", "value": 71, "unit": "%"}, {"measurement": "pest or weed control at 10 µg/mL", "setting": "[5]", "value": 0, "unit": "%"}, {"measurement": "pest or weed control at 100 µg/mL", "setting": "[5]", "value": 5, "unit": "%"}, {"measurement": "pest or weed control at 600 µg/mL", "setting": "[5]; 600 mg/L", "value": 100, "unit": "%"}, {"measurement": "pest or weed control at 10 µg/mL", "setting": "[6]; [10]", "value": 28, "unit": "%"}, {"measurement": "pest or weed control at 100 µg/mL", "setting": "[6]; [10]", "value": 63, "unit": "%"}, {"measurement": "pest or weed control at 600 µg/mL", "setting": "[6]; Tetranychus cinnabarinus, 72 h, 600 mg/L, read-out: Insecticidal activity against carmine spider mite (% )", "value": 100, "unit": "%"}, {"measurement": "pest or weed control at 6.25 µg/mL", "setting": "[9]", "value": 0, "unit": "%"}, {"measurement": "pest or weed control at 25 µg/mL", "setting": "[9]", "value": 0, "unit": "%"}, {"measurement": "pest or weed control at 100 µg/mL", "setting": "[9]", "value": 0, "unit": "%"}, {"measurement": "pest or weed control at 400 µg/mL", "setting": "[9]", "value": 40, "unit": "%"}]}
{"smiles": "CCc1ncnc(NCc2ccc(Oc3ccc(C(F)(F)F)cc3Cl)cc2)c1Cl", "note": "[CK48, reference compound]", "values": [{"measurement": "inhibition at 8.3 ppm", "setting": "[1]", "value": 0, "unit": "%"}, {"measurement": "inhibition at 25 ppm", "setting": "[1]", "value": "< 50", "unit": "%"}, {"measurement": "inhibition at 25 ppm", "setting": "[2]", "value": 0, "unit": "%"}, {"measurement": "pest or weed control at 600 µg/mL", "setting": "[3]; 72 h, 600 mg/L", "value": 40, "unit": "%"}, {"measurement": "pest or weed control at 600 µg/mL", "setting": "[4]; [11]", "value": 50, "unit": "%"}, {"measurement": "pest or weed control at 10 µg/mL", "setting": "[5]", "value": 0, "unit": "%"}, {"measurement": "pest or weed control at 100 µg/mL", "setting": "[5]", "value": 87, "unit": "%"}, {"measurement": "pest or weed control at 600 µg/mL", "setting": "[5]; 600 mg/L", "value": 100, "unit": "%"}, {"measurement": "pest or weed control at 6.25 µg/mL", "setting": "[9]", "value": 0, "unit": "%"}, {"measurement": "pest or weed control at 25 µg/mL", "setting": "[9]", "value": 0, "unit": "%"}, {"measurement": "pest or weed control at 100 µg/mL", "setting": "[9]", "value": 20, "unit": "%"}, {"measurement": "pest or weed control at 400 µg/mL", "setting": "[9]", "value": 60, "unit": "%"}, {"measurement": "pest or weed control at 6.25 µg/mL", "setting": "[7]; Triticum aestivum, 168 h, read-out: control effect against wheat powdery mildew (%), 6.25 mg/L", "value": 0, "unit": "%"}, {"measurement": "pest or weed control at 25 µg/mL", "setting": "[7]; Triticum aestivum, 168 h, read-out: control effect against wheat powdery mildew (%), 25 mg/L", "value": 0, "unit": "%"}, {"measurement": "pest or weed control at 100 µg/mL", "setting": "[7]; Triticum aestivum, 168 h, read-out: control effect against wheat powdery mildew (%), 100 mg/L", "value": 0, "unit": "%"}, {"measurement": "pest or weed control at 400 µg/mL", "setting": "[7]; Triticum aestivum, 168 h, read-out: control effect against wheat powdery mildew (%), 400 mg/L", "value": 30, "unit": "%"}]}
